According to ChEMBL document CHEMBL4428024, “Targeting the Bacterial Division Protein FtsZ” (J Med Chem, 2016):
Values after ≈ are worked out from the molar mass of the structure shown.

Columns and labels:
Staphylococcus aureus [1] = experiment: Antimicrobial activity against Staphylococcus aureus; format: functional
[2] = molecular target: T1, Cell division protein FtsZ (Staphylococcus aureus) (UniProt P0A031); experiment: Activation of Staphylococcus aureus FtsZ assessed as increase in GTPase activity by malachite green assay
T1 sequence (whole entry): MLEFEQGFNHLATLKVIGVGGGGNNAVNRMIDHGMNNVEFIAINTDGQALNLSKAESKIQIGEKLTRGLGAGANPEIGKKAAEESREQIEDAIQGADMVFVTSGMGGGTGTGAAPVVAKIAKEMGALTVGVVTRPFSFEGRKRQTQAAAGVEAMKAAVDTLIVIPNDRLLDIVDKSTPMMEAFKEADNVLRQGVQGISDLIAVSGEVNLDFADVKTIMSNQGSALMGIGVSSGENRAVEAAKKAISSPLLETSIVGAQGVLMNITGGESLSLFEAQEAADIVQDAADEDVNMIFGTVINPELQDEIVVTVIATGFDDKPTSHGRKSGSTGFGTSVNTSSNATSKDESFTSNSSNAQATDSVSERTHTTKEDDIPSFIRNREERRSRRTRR

[3] = molecular target: T2, Cell division protein FtsZ (Escherichia coli K-12) (UniProt P0A9A6); experiment: Inhibition of Escherichia coli FtsZ assessed as reduction in GTPase activity by malachite green assay
T2 sequence (whole entry): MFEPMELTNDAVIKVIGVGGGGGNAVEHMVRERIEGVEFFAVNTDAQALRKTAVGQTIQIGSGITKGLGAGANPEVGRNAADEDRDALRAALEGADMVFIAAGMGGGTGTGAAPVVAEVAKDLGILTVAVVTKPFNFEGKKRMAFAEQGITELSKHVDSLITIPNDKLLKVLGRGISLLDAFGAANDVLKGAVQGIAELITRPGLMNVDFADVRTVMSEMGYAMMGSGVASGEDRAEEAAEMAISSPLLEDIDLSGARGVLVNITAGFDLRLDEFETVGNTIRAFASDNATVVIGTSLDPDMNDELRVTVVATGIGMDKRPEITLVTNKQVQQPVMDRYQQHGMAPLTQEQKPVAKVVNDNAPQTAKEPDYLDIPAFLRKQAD

Staphylococcus aureus [4] = experiment: Antimicrobial activity against methicillin resistant Staphylococcus aureus; format: functional
Bacillus subtilis = experiment: Antimicrobial activity against Bacillus subtilis; format: functional
[5] = molecular target: T3, Cell division protein FtsZ (Bacillus subtilis) (UniProt A5Z1V5); experiment: Inhibition of Bacillus subtilis FtsZ assessed as reduction in GTPase activity by malachite green assay
T3 sequence (whole entry): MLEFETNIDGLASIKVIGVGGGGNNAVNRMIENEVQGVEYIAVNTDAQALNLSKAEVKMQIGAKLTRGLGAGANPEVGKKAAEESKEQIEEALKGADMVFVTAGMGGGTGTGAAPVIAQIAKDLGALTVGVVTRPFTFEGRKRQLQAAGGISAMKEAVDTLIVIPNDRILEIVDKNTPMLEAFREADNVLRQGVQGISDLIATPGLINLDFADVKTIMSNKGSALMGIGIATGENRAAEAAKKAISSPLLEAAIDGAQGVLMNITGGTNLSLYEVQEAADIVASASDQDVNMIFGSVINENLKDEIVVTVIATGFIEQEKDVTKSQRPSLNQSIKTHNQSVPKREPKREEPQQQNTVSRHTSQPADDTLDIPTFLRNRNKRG

[6] = tested on: Mycolicibacterium smegmatis; experiment: Antimicrobial activity against Mycobacterium smegmatis; format: functional
[7] = molecular target: T2, Cell division protein FtsZ (Escherichia coli K-12); experiment: Inhibition of Escherichia coli FtsZ assessed as reduction in polymerization
Escherichia coli = experiment: Antimicrobial activity against Escherichia coli; format: functional
[8] = molecular target: T4, Cell division protein FtsZ (Mycobacterium tuberculosis) (UniProt P9WN95); experiment: Inhibition of Mycobacterium tuberculosis FtsZ assessed as reduction in GTPase activity by malachite green assay
T4 sequence (whole entry): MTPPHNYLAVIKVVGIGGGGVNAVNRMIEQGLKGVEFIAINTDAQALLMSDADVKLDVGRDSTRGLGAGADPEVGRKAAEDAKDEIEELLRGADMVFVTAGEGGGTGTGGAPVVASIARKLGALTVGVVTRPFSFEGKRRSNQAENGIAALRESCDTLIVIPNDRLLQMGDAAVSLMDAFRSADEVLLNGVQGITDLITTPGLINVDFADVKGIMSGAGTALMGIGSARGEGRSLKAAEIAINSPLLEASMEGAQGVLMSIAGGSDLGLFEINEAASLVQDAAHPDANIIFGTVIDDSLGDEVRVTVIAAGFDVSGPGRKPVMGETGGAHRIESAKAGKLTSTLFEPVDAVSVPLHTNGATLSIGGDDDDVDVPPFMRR

[9] = molecular target: T4, Cell division protein FtsZ (Mycobacterium tuberculosis); experiment: Inhibition of Mycobacterium tuberculosis FtsZ assessed as reduction in GTPase activity by coupled enzyme assay
[10] = molecular target: T2, Cell division protein FtsZ (Escherichia coli K-12); experiment: Inhibition of Escherichia coli FtsZ assessed as reduction in GTPase activity by coupled enzyme assay
Enterococcus faecalis = experiment: Antimicrobial activity against Enterococcus faecalis; format: functional
[11] = Inhibition of ZipA-FtsZ protein-protein interaction (unknown origin) assessed as reduction in binding of fluorescein-labeled analogue of FtsZ C-terminal residues (367 to 383 residues) to C-terminal domain of ZipA (185 to 328 residues) by fluorescence polarization assay
[12] = molecular target: T2, Cell division protein FtsZ (Escherichia coli K-12)
Description: Binding affinity to Escherichia coli FtsZ

[13] = molecular target: T5, Cell division protein FtsZ (Escherichia coli K-12, UniProt P0A9A6); experiment: Displacement of bis-ANS from Escherichia coli FtsZ
T5 sequence (P0A9A6 whole entry): T2 sequence (whole entry)

[14] = molecular target: T1, Cell division protein FtsZ (Staphylococcus aureus); experiment: Inhibition of Staphylococcus aureus FtsZ assessed as reduction in GTPase activity by coupled enzyme assay

Q: With `NC(=O)c1c(F)ccc(OCc2nc3cc(Cl)cnc3s2)c1F` as the compound, how does the MIC (Staphylococcus aureus [1]) read?
A: 1 µg/mL (≈ 2.81 µM)

Q: And the Activity [2]?
A: 0.1 µM

Q: For `Oc1cc(O)c2c(c1)C/C(Cl)=C\Cc1cc(c(Cl)cc1O)Oc1c(O)cc(cc1O)C/C(Cl)=C\Cc1cc(c(Cl)cc1O)O2`, which INH [3] is on record?
A: 9.88 µM

Q: And the MIC (Staphylococcus aureus [1])?
A: 1.8 µg/mL (≈ 2.65 µM)

Q: What about the INH (Staphylococcus aureus [4]) of the same compound?
A: 1.5 µg/mL

Q: For `CC(=O)O[C@@]12CO[C@@H]1C[C@H](O)[C@@]1(C)C(=O)[C@H](O)C3=C(C)[C@@H](OC(=O)/C=C/c4ccc5ccccc5c4)C[C@@](O)([C@@H](OC(=O)c4ccccc4)[C@H]21)C3(C)C`, which INH (Bacillus subtilis) is on record?
A: 38 µM

Q: And the INH [5]?
A: 35 µM

Q: And the INH [6]?
A: 60 µM

Q: Which IC50 [7] does the source give for `CCN(CC)CCNc1nc(/C=C/c2ccc(Cl)cc2)nc2cc3ccccc3cc12` here?
A: 15 µM

Q: And the MIC (Bacillus subtilis)?
A: 1.08 µg/mL (≈ 2.51 µM)

Q: And the MIC (Escherichia coli)?
A: >34 µg/mL

Q: What about the INH (Staphylococcus aureus [4]) of the same compound?
A: 4.31 µg/mL

Q: What about the INH [8] of the same compound?
A: 50 µM

Q: And the INH [9]?
A: 50 µM

Q: What about the IC50 [10] of the same compound?
A: 15 µM

Q: Which MIC (Bacillus subtilis) does the source give for `O=C(O)c1ccc(-c2cccc(-c3c(-c4ccccc4)[nH]c4ccccc34)c2)cc1` here?
A: 4 µg/mL (≈ 10.3 µM)

Q: What about the MIC (Staphylococcus aureus [1]) of the same compound?
A: 4 to 8 µg/mL

Q: And the MIC (Enterococcus faecalis)?
A: 8 to 16 µg/mL

Q: What about the IC50 [11] of the same compound?
A: 192 µM

Q: For `O=C/C=C/c1ccccc1` [CINNAMALDEHYDE], which INH [3] is on record?
A: 5.81 µM

Q: What about the INH (Bacillus subtilis) of the same compound?
A: 500 mg/L

Q: What about the INH (Staphylococcus aureus [1]) of the same compound?
A: 250 mg/L

Q: What about the INH (Escherichia coli) of the same compound?
A: 1000 mg/L

Q: And the Ka [12]?
A: 1 µM

Q: Which IC50 [7] does the source give for `COc1ccc2cc3[n+](cc2c1OC)CCc1cc2c(cc1-3)OCO2.[Cl-]` [BERBERINE CHLORIDE] here?
A: 10 µM

Q: And the INH [3]?
A: 16 µM

Q: And the MIC (Bacillus subtilis)?
A: 100 µg/mL

Q: What about the MIC (Staphylococcus aureus [1]) of the same compound?
A: 32 to 128 µg/mL

Q: And the INH (Escherichia coli)?
A: >400 µM

Q: What about the Kd [13] of the same compound?
A: 23 nM

Q: Which results are given for `CCC(CC)c1cc([C@H]2CN3CC[C@H]2C[C@@H]3CN)nc(-c2ccncc2)n1`?
A: MIC (Staphylococcus aureus [1]): 6.53 µg/mL (≈ 17.9 µM); MIC (Escherichia coli): 13.1 µg/mL (≈ 35.8 µM); INH [14]: 37.5 µM
